Tests used:
enkephalinase [1] = biological target: T1, enkephalinase (Rattus norvegicus, UniProt P07861); experiment: inhibition of enkephalinase enzyme in vitro (Tyr-gly-gly formation from 3H-leucine-enkephalin); type: biochemical, Sprague-Dawley CD male rats (whole brain minus cerebellum); settings: pH 7.7, 37° C., 1 hour
T1 construct: whole brain (minus cerebellum) is removed from Sprague-Dawley CD male rats; from tissue; host or cells: rat whole brain minus cerebellum (Sprague-Dawley CD male rats, Charles River); washed membranes solubilized with 1% Triton X-100
T1 sequence (P07861 1-750): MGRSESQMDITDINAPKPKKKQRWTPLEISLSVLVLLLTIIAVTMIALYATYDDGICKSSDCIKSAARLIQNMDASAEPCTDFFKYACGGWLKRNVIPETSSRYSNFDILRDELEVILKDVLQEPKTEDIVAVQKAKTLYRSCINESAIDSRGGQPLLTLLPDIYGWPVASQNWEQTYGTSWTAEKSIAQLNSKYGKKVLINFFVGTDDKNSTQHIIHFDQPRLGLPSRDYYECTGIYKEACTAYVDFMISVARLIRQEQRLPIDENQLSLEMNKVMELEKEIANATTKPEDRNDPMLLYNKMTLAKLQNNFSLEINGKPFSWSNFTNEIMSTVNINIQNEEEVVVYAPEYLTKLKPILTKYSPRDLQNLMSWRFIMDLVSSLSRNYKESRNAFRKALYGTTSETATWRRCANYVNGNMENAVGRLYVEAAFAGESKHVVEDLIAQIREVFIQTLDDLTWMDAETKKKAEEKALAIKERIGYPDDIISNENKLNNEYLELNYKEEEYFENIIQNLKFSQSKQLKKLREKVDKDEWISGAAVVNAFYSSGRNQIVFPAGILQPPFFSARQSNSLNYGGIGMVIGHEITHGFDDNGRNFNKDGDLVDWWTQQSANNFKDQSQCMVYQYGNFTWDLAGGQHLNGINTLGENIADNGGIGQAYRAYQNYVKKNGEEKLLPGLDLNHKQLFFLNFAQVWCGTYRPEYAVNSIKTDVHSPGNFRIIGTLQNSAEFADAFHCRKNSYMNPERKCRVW
Protocol: The compounds of the present invention are studied in vitro for inhibition of enkephalinase enzyme in the following manner. To prepare the enzyme, whole brain (minus cerebellum) is removed from Sprague-Dawley CD male rats (Charles River Breeding Laboratories, Inc., Wilmington, MA; 200-250 g.) following decapitation. The tissue is homogenized (Polytron, Brinkmann Instruments, Inc., Westbury, NY) in 30 volumes (w/v) of ice-cold 50 mM Tris-HCl tris(hydroxymethyl)methylamine hydrochloride, Fisher Scientific Co., Fair Lawn, NJ) pH 7.7 buffer. The homogenate in centrifuged at 50,000×g. for 15 minutes. The pellet is resuspended in 50 mM Tris-HCl pH 7.7 buffer and centrifuged at 50,000×g. for 15 minutes. The resultant pellet is resuspended and centrifuged 3 additional times as described above. The membrane pellet is dispersed in 15 volumes of 50 mM Tris-HCl pH 7.7 buffer containing 1% Triton X-100 (Rohm and Haas, Philadelphia, PA) and incubated at 37° C. for 45 minutes. After centrifugation at 100,000×g. for 60 minutes, the solubilized enzymes are frozen in 2 ml. aliquots (this preparation can be stored frozen for 3 months).
One set of control tubes contains boiled enzyme (heated at 100° C. for 10 minutes) for blank. The reaction is stopped by boiling tubes for 10 minutes, followed by centrifugation for 1 minute in the Beckman Microfuge centrifuge. A ten microl aliquot of each supernatant is spotted on a thin layer chromatography (TLC) plate (Silica Gel 60, 20×20 cm, E. Merck, Darmstadt, Germany) using 1-8 samples per plate. Ten microl of a standard mixture consisting of 0.4 mg./ml. tyrosine (tyr, Mann Research Laboratories, Inc., New York, NY), 1 mg./ml. L-tyrosylglycine (tyr-gly Sigma), 1 mg./ml. L-tyrosylglycylglycine (tyr-gly-gly, Sigma) and 1 mg./ml. leucine-enkephalin (leu-E, Calbiochem-Behring Corp., La Jolla, CA) are spotted on top of each incubation mixture spot, as well as separately on each plate, to aid in zone indentification.
Plates are dried and placed in covered glass tanks equilibrated with 100 ml. of isopropanol:ethyl acetate:5% acetic acid (2:2:1). After development of the TLC plates, the separated products were visualized by spraying with a ninhydrin:acetone (0.5%, w/v) solution and heating for 10 minutes at 100° C. in a vacuum oven. Rf values of standard markers are: tyr, 0.33; tyr-gly, 0.20: tyr-gly-gly, 0.13; leu-E, 0.47. The radioactive spots are identified by the added markers and scraped into scintillation vials to which 1 ml. ethanol is added, followed by 10 ml. Aquasol-2 (New England Nuclear). Vials are kept overnight and counted for radioactivity in a liquid scintillation counter. Tyr-gly-gly formation is based on the difference between total counts per minute for this TLC zone minus the corresponding value obtained by using boiled enzyme (blank). […]

[2] = test system: abdominal stretching after phenylbenzoquinone (PBQ); experiment: analgesic activity: blockade of abdominal stretching after phenylbenzoquinone (PBQ); type: in vivo, mice, Carworth CF-1 strain; parameters: key: (a): No significant activity noted at this dose level; settings: s.c., 20 min. pre-treatment
Protocol: To test for the analgesic activity of the compounds of the present invention, a chemical nociceptive stimulus is employed, viz., blockade of abdominal stretching after phenylbenzoquinone (PBQ). […] The animals to be used are fasted for 15-16 hr. before the start of the experiment. Fifteen mice (groups of 5) weighing 11-15 g. are employed per dose level. Compounds are given by the oral or subcutaneous route. Drug pre-treatment times are 1 hr. (p.o.) and 20 min. (s.c.). Pairs of mice are injected with 2 mg./kg. of PBQ i.p. and placed in a lucite box (11×7×9.5 in.) maintained at 40° by a thermostatically controlled water bath. Starting 5 min. later the animals are observed for 5 min. and the number of abdominal stretching responses per animal is recorded. A stretch is considered to represent an intermittent contraction of the abdomen, hind limb extension, pelvic rotation, or opisthotonos (the abdomen of the mouse touches the floor of the cage and is dragged the length of the cage). The degree of analgesic protection is calculated on the basis of the suppression of writhing relative to control animals run on the same day (% MPE). This test reflects the ultimate clinical utility of the compounds as analgesic agents.

[3] = test system: supramaximal electroconvulsive shock (ECS); experiment: anticonvulsant effect vs. supramaximal electroconvulsive shock (ECS) in mice; type: in vivo, Charles River males, Swiss CD strain; settings: for ED50: Mus musculus, sc, mice, 1 hr. before ECS
Protocol: The anticonvulsant activity of the compounds of the present invention is determined by testing in mice, viz., Charles River males, Swiss CD strain (17-21 g.), fasted for 18 hr. before testing. Groups of mice are treated with a range of levels of the test compounds, and 1 hr. later with supramaximal electroconvulsive shock (ECS), administered for 0.2 sec. at 50 mA, 60 Hz, through transcorneal electrodes. After administration of the electrical stimulus, each mouse is observed for 10 sec. for the presence or absence of hind limb tonic extension. […] Blockade of supramaximal ECS in mice is a common laboratory test for clinical utility as an anticonvulsant, and certain known anticonvulsant drugs show activity in this test.

enkephalinase [4] = settings: Roques et al., Nature 288, 286-288 (1980); cited from earlier work
hot plate jump test = settings: mice; Roques et al.; cited from earlier work
tail withdrawal test = settings: mice; Roques et al.; cited from earlier work

IC50 (enkephalinase [1]) | SMILES | Percent Blockade of Abdominal Stretching (% MPE) After Phenylbenzoquinone ([2]; 320 mg./kg.) | ED50 [3] | also measured
480 nM | CSCC[C@@H](CO)NC(=O)[C@@H](CS)Cc1ccccc1 [I (X=H, R=H, n=2, m=0, R^1=CH3)] | 100 % MPE | 178 mg/kg | Percent Blockade of Abdominal Stretching (% MPE) After Phenylbenzoquinone ([2]; 170 mg./kg.): 23 % MPE; Percent Blockade of Abdominal Stretching (% MPE) After Phenylbenzoquinone ([2]; 233 mg./kg.): 69 % MPE
 | COc1ccc(C[C@@H](CS)C(=O)N[C@H](CO)CCSC)cc1 [II (X=4-OCH3, R=H, n=2, m=0, R^1=CH3)] | 46 % MPE |  | 
9600 nM | CSCC[C@@H](CO)NC(=O)[C@H](CS)Cc1ccccc1 [II (X=H, R=H, n=2, m=0, R^1=CH3)] | (a) |  | 
 | COc1ccc(C[C@H](CS)C(=O)N[C@H](CO)CCSC)cc1 [I (X=4-OCH3, R=H, n=2, m=0, R^1=CH3)] | 62 % MPE |  | 
 | CSCC[C@@H](CO)NC(=O)[C@@H](CS)Cc1ccc(Cl)cc1 [I (X=4-Cl, R=H, n=2, m=0, R^1=CH3)] | 86 % MPE |  | 
70 nM | CSCC[C@H](NC(=O)[C@@H](CS)Cc1ccccc1)C(=O)O [IV] |  | 141 mg/kg | Percent Blockade of Abdominal Stretching (% MPE) After Phenylbenzoquinone ([2]; 160 mg./kg.): 48 % MPE
9.1 nM | CSCC[C@H](NC(=O)[C@H](CS)Cc1ccccc1)C(=O)O [III] |  | 74.1 mg/kg | Percent Blockade of Abdominal Stretching (% MPE) After Phenylbenzoquinone ([2]; 160 mg./kg.): 57 % MPE
 | O=C(O)CNC(=O)C(CS)Cc1ccccc1 (stereo not shown) [Thiorphan, N-(2-benzyl-3-mercaptopropionyl)glycine] |  | > 320 mg/kg | anticonvulsant activity (in words) ([3]; even at a much higher dose): inactive; enkephalinase inhibition (in words) (enkephalinase [4]): specific enkephalinase inhibitor; analgesic (antinociceptive) activity, hot plate jump test (in words) (hot plate jump test): elicit analgesic (antinociceptive) activity; analgesic (antinociceptive) activity, tail withdrawal test (in words) (tail withdrawal test): not in the so-called tail withdrawal test
 | CSCC[C@@H](CO)NC(=O)[C@H](CS)Cc1ccc(Cl)cc1 [II (X=4-Cl, R=H, n=2, m=0, R^1=CH3)] | 75 % MPE |  | 

From US4329495A, “Enkephalinase enzyme inhibiting compounds” (Pfizer Inc., priority 1981, dated 1982)
